Common to all, as to test: SelectScreen kinase specificity survey
Common to all, as to format: biochemical
What all share (details): estimated, abridged dose response curve, read-out: Kinase inhibitory activity EC50

One experiment deals with T1, AKT1 (PKB alpha) (Homo sapiens, UniProt P31749).
T1 construct: purchased Invitrogen (SelectScreen platform)
A digest of the protocol: (§1)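 With 100 micromolar ATP present, substrate phosphorylation by each panel kinase was tracked optically against an uninhibited baseline. Graded inhibitor, added in 5 steps, produced a sigmoid curve, and a Hill equation with four parameters was fitted to it to give an estimated EC50.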

The target of a further experiment is T2, ALK (Homo sapiens, UniProt Q9UM73).
T2 construct: purchased Invitrogen (SelectScreen platform)
Put shortly:
as §1

The target of a further experiment is T3, AURKB (Aurora B) (Homo sapiens, UniProt Q96GD4).
T3 construct: purchased Invitrogen, Inc. (SelectScreen service)
A digest of the protocol: as §1

A further experiment deals with T4, CDK5/p35 (Homo sapiens, UniProt Q00535).
T4 construct: purchased Invitrogen (SelectScreen platform)
Put shortly:
as §1

A further experiment deals with T5, EGFR (ErbB1) (Homo sapiens, UniProt P00533).
T5 construct: purchased Invitrogen (SelectScreen service)
Put shortly:
as §1

In the next experiment the target is T6, EGFR (ErbB1) L861Q (Homo sapiens, UniProt P00533, L861Q).
T6 construct: purchased Invitrogen (SelectScreen service)
A digest of the protocol:
as §1

The target of the next experiment is T7, EPHA3 (Homo sapiens, UniProt P29320).
T7 construct: purchased Invitrogen (SelectScreen service)
Put shortly: as §1

The target of a further experiment is T8, EPHA4 (Homo sapiens, UniProt P54764).
T8 construct: purchased Invitrogen (SelectScreen service)
A digest of the protocol: as §1

Another experiment concerns the target T9, EPHB3 (Homo sapiens, UniProt P54753).
T9 construct: purchased Invitrogen (SelectScreen service)
Put shortly:
as §1

The target of a further experiment is T10, ERBB2 (HER2) (Homo sapiens, UniProt P04626).
T10 construct: purchased Invitrogen (SelectScreen service)
Put shortly:
as §1

The next experiment addresses T11, FGFR1 (Homo sapiens, UniProt P11362).
T11 construct: purchased Invitrogen (SelectScreen service)
A digest of the protocol:
as §1

The target of another experiment is T12, FRAP1 (mTOR) (Homo sapiens, UniProt P42345).
T12 construct: purchased Invitrogen, Inc. (SelectScreen platform)
Put shortly: as §1

In a further experiment the target is T13, GSK3A (GSK3 alpha) (Homo sapiens, UniProt P49840).
T13 construct: purchased Invitrogen (SelectScreen platform)
A digest of the protocol:
as §1

The target in another experiment is T14, MAPK8 (JNK1) (Homo sapiens, UniProt P45983).
T14 construct: purchased Invitrogen, Inc. (SelectScreen service)
A digest of the protocol: as §1

Another experiment has as its target T15, PAK7 (KIAA1264, PAK5) (Homo sapiens, UniProt Q9P286).
T15 construct: purchased Invitrogen (SelectScreen platform)
A digest of the protocol: as §1

A further experiment deals with T16, PDGFRA D842V (Homo sapiens, UniProt P16234, D842V).
T16 construct: purchased Invitrogen (SelectScreen platform)
A digest of the protocol:
as §1

For the next experiment, the target named is T17, PDGFRB (PDGFR beta) (Homo sapiens, UniProt P09619).
T17 construct: purchased Invitrogen (SelectScreen platform)
Put shortly: as §1

The target in another experiment is T18, PRKCG (PKC gamma) (Homo sapiens, UniProt P05129).
T18 construct: purchased Invitrogen, Inc. (SelectScreen platform)
Put shortly:
as §1

Another experiment addresses T19, PTK2B (FAK2, PYK2) (Homo sapiens, UniProt Q14289).
T19 construct: purchased Invitrogen (SelectScreen service)
Put shortly:
as §1

Another experiment has as its target RPS6KB1 (p70S6K) (Homo sapiens, UniProt P23443). A digest of the protocol: as §1
For another experiment, the target named is T20, SRC N1 (Homo sapiens, UniProt P12931).
T20 construct: purchased Invitrogen (SelectScreen)
A digest of the protocol: as §1

The target of the next experiment is T21, SYK (Homo sapiens, UniProt P43405).
T21 construct: purchased Invitrogen (SelectScreen)
Put shortly: as §1

For a further experiment, the target named is T22, TAOK2 (TAO1) (Homo sapiens, UniProt Q9UL54).
T22 construct: purchased Invitrogen (SelectScreen platform)
A digest of the protocol: as §1

The next experiment addresses T23, TYRO3 (RSE) (Homo sapiens, UniProt Q06418).
T23 construct: purchased Invitrogen (SelectScreen service)
A digest of the protocol:
as §1

Molecules are shown by their SMILES.

T9 sequence (P54753 34-998): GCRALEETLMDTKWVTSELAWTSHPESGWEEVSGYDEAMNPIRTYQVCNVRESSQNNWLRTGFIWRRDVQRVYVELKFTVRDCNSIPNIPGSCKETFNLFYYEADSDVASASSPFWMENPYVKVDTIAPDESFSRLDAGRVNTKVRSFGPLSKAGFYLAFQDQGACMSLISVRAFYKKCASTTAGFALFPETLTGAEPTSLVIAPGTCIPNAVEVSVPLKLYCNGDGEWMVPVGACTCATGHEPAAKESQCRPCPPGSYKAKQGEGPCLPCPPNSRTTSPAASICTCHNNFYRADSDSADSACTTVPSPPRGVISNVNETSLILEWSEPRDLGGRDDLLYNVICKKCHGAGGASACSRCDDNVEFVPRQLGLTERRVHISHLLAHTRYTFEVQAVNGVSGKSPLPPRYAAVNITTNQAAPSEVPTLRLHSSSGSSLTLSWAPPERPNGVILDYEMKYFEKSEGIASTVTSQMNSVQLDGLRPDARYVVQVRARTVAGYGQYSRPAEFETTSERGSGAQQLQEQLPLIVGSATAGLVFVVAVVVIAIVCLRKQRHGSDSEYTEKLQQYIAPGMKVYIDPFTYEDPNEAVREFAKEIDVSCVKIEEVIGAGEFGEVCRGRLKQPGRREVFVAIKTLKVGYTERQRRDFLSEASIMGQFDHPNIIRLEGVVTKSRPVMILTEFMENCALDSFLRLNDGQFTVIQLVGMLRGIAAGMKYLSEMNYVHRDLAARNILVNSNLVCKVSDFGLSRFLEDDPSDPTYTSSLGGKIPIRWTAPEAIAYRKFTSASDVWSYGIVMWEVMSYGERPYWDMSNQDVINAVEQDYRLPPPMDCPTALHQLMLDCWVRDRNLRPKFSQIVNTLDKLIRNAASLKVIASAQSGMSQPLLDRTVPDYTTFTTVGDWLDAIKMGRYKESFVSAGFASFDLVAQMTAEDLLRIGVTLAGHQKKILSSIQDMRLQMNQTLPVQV
T20 sequence (P12931 1-542 isoform P12931-2): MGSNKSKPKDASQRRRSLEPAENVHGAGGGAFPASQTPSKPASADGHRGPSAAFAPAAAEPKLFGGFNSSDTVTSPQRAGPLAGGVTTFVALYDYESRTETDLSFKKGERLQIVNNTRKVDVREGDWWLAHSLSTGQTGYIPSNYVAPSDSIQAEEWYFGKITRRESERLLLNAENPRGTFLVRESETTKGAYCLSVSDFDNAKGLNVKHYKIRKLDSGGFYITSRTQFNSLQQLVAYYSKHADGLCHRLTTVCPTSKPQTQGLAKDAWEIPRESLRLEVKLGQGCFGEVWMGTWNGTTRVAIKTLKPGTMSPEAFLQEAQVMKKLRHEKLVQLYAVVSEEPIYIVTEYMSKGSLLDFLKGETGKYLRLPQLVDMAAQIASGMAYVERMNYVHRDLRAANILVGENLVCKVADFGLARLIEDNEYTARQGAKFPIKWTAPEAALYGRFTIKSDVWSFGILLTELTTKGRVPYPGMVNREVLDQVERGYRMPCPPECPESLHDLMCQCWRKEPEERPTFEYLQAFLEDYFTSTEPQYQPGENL
T15 sequence (Q9P286 whole entry): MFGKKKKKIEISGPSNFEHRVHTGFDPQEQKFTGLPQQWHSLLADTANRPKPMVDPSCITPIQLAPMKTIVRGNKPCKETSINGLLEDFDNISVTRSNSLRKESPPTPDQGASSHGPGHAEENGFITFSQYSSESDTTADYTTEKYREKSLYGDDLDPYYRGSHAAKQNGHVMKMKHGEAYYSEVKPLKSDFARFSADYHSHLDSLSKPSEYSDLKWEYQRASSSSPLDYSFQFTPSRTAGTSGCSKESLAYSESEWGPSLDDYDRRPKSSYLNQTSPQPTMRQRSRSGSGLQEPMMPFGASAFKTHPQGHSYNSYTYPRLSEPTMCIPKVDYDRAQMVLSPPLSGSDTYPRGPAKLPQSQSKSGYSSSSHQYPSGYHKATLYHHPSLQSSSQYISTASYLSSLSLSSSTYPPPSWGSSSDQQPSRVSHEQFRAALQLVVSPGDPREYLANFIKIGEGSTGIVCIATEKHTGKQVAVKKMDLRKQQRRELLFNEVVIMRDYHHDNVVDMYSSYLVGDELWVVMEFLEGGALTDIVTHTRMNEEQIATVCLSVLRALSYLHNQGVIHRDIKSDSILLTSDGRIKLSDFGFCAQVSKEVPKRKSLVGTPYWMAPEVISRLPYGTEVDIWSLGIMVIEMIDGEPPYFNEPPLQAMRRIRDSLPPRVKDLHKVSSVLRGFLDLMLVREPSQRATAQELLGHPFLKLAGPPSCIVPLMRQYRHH
T5 sequence (P00533 25-1210): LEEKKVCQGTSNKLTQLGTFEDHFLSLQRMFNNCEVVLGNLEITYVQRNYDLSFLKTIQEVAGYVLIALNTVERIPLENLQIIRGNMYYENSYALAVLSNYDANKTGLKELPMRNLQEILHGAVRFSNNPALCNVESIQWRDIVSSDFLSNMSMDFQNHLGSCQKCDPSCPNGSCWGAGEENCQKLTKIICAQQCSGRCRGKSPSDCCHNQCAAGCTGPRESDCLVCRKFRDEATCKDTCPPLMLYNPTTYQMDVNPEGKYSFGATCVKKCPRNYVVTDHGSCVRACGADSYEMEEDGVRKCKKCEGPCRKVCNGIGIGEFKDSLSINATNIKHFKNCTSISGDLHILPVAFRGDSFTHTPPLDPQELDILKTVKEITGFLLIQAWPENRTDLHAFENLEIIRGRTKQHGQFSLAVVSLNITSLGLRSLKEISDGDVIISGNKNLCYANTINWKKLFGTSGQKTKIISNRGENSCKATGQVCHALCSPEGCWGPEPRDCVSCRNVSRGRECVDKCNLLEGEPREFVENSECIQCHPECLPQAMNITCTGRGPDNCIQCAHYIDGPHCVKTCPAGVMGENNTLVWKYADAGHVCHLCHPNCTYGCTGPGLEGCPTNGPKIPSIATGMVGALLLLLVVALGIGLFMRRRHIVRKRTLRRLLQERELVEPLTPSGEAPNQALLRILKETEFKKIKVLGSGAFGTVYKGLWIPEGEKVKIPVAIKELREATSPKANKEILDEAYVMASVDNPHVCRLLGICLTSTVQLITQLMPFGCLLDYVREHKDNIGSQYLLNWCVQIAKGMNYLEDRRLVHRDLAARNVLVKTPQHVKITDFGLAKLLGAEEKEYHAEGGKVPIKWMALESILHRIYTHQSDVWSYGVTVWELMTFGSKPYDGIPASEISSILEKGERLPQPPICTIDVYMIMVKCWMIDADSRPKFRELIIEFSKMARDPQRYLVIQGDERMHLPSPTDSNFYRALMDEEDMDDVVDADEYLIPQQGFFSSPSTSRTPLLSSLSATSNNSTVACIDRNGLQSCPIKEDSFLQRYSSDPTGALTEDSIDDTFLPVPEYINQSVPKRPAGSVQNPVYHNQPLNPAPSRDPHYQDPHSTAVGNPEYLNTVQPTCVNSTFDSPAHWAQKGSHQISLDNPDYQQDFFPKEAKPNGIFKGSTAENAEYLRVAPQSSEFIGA
T23 sequence (Q06418 41-890): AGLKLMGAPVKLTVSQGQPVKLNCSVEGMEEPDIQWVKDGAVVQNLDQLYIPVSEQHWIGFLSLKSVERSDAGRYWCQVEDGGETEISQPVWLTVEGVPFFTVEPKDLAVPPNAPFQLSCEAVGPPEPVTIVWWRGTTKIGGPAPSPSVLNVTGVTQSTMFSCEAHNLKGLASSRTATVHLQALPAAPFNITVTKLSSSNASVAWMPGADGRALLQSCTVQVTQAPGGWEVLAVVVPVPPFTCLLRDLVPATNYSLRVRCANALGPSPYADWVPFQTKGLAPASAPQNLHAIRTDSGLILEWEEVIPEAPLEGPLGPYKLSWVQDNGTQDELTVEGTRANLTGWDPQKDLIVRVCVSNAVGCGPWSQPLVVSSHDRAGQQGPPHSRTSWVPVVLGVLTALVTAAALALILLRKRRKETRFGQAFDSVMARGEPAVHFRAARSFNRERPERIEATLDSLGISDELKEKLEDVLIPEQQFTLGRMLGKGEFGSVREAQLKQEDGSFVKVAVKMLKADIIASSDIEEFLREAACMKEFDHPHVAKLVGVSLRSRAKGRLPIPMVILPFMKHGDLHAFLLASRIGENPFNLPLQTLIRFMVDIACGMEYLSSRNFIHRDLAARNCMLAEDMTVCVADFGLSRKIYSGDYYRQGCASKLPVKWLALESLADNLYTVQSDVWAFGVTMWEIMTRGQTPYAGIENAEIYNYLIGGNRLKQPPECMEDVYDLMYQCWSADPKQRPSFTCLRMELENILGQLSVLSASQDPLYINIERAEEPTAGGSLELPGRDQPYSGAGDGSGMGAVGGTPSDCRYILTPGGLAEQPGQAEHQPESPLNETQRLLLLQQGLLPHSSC

In general, EC50 refers to the concentration giving half of the maximal effect. Turning to `CN(C)CCCNc1ccc2ncn3c4ccc5[nH]ncc5c4c(=O)c1c23` [Compound (IV)], the EC50 at AKT1 (PKB alpha) was over 5 µM; at ALK, 4.63 µM; at AURKB (Aurora B), over 5 µM; on CDK5/p35 it was 2.8 µM; at EGFR (ErbB1), over 5 µM; on EGFR (ErbB1) L861Q, over 5 µM. Moreover, the EC50 is over 5 µM at EPHA3; over 5 µM on EPHA4; over 5 µM at EPHB3; over 5 µM at ERBB2 (HER2); 3.57 µM at FGFR1; over 5 µM at FRAP1 (mTOR). Besides, the EC50 is 3.62 µM at GSK3A (GSK3 alpha); over 5 µM at MAPK8 (JNK1); over 5 µM on PAK7 (KIAA1264, PAK5); 0.37 µM at PDGFRA D842V; 0.278 µM at PDGFRB (PDGFR beta); over 5 µM on PRKCG (PKC gamma). In addition, the EC50 on PTK2B (FAK2, PYK2) is over 5 µM; at RPS6KB1 (p70S6K), 2.37 µM; at SRC N1, 0.511 µM; at SYK it was over 5 µM; on TAOK2 (TAO1), over 5 µM; at TYRO3 (RSE) it was 3.57 µM.
Consider `CCN(CC)CCNc1ccc2ncn3c4ccc(O)cc4c(=O)c1c23` [Symadex, 5-(2-(diethylamino)ethylamino)-8-hydroxy-6H-imidazo[4,5,1-de]acridin-6-one, reference compound], for which the EC50 on AKT1 (PKB alpha) is over 5 µM; on ALK it was 2.48 µM; on AURKB (Aurora B) it was over 5 µM; at CDK5/p35, over 5 µM; at EGFR (ErbB1) it was over 5 µM; on EGFR (ErbB1) L861Q, over 5 µM. The EC50 on EPHA3 was over 5 µM; at EPHA4, over 5 µM; on EPHB3, over 5 µM; at ERBB2 (HER2), over 5 µM; at FGFR1 it was 2.39 µM; on FRAP1 (mTOR) it was over 5 µM. Moreover, the EC50 was over 5 µM at GSK3A (GSK3 alpha); over 5 µM on MAPK8 (JNK1); over 5 µM at PAK7 (KIAA1264, PAK5); 1.06 µM on PDGFRA D842V; 1.79 µM at PDGFRB (PDGFR beta); 1.89 µM at PRKCG (PKC gamma). Moreover, the EC50 on PTK2B (FAK2, PYK2) was over 5 µM; on RPS6KB1 (p70S6K) it was over 5 µM; at SRC N1 it was 3.15 µM; on SYK it was 3.91 µM; at TAOK2 (TAO1), over 5 µM; at TYRO3 (RSE), 2.44 µM.

The record behind these values is patent publication US20100292231A1, “Indazole Compounds for Treating Inflammatory Disorders, Demyelinating Disorders and Cancers” (priority 2007, published 2010).
